# Assay results taken from article PMC2001498, “Effects of transplantation and resection of a radiation-induced rat insulinoma on glucose homeostasis and the endocrine pancreas” (British Journal of Cancer, 1986).
# Where a name gives a salt, the structure may show the parent alone.
# System: pancreatic B cell function
# Assay: Plasma insulin response to intraperitoneal arginine after tumour resection
# Conditions: plasma insulin at 0, 30 and 60 min, groups of 6 rats
smiles,measurement,setting,value
"N=C(N)NCCC[C@H](N)C(=O)O [arginine, arginine hydrochloride]","plasma insulin response to arginine, 1 day after tumour resection","arginine hydrochloride 2 g kg-1 i.p. in 0.9% NaCl, ex-tumour bearing rats 1 day after resection",failed to evoke a plasma insulin response
same,"insulin response to arginine, 12 days after tumour resection","arginine hydrochloride 2 g kg-1 i.p., ex-tumour bearing rats 12 days after resection",impaired
